# Source: patent publication US7816343B2, “Wood preservative composition” (HWD Acquisition, Inc., priority 2007, dated 2010)
# Assays:
# [1] = Compatibility Test B: mixtures of single borate esters with Fungicide I; assay type: physicochemical; conditions: for appearance during mixing / separation or precipitation after mixing: borate ester mixed with Fungicide I (TBGB, HGB 10%); for overall stability of mixture with Fungicide I: conclusion from the observations; for collapse of closed container (moisture drawn from air): mixture with Fungicide I in closed container, TBGB a week, THGB 18 days
# Text: A mixture of Fungicide I and a 10% tributylene glycol biborate (TBGB) was made by pouring the TBGB into the Fungicide I. The following observations were made while making and after making the mixture.
# The TBGB reacted with moisture in the air while pouring and formed a thin white film over the pour stream. […] This behavior was duplicated by opening the container and allowing it to come back to its normal shape and closing the container again. It is noted that TBGB in a fungicide mixture when open to the air will draw moisture from the air and hydrolyze to a form insolubles and result in an increase in the separated phase. The hazing during mixing and phase separation seen during the first test was identical to that observed during this mixing.
# The TBGB test was repeated using a mixture of 10% hexylene glycol biborate (HGB). The mixture was made by pouring the HGB into the Fungicide I composition. The following observations were made while making and after making the mixture:
# The container was closed. The crystalline material is soluble in water and isopropyl alcohol. A 10% HGB/mineral spirits solution was made to test for moisture adsorption from the air. […] The crystalline material is likely the hydroxy hexylene glycol borate compound formed by hydrolysis of the anhydride bond. The crystal formation in the HGB testing is similar to that observed in the first test in the test mixture storage drum.
# The basic observations are that both the TBGB and HGB react with various components of the Fungicide I mixture and react with moisture in the air.
# A mixture of tri hexylene glycol biborate (THGB) and Fungicide I was made. It was observed that the solution remains clear with no separation. Next, the mixture was left open to atmosphere for 90 days at 40% to 50% relative humidity conditions. […] A 10% evaporative loss of mineral spirits approximately every 14 days was replaced with new mineral spirits without any negative effects. […] The mixture was placed in a 0° F. freezer overnight. […] The mixture was placed in a 42° F. refrigerator for 63 hours.
# [2] = cited from earlier work
SMILES,"redissolution on heating ([1]; after freezer, heated to approximately 20 F with stirring)",appearance during mixing [1],separation or precipitation after mixing [1],overall stability of mixture with Fungicide I [1],collapse of closed container (moisture drawn from air) [1],"appearance after open storage ([1]; mixture with Fungicide I left open to atmosphere 90 days, 40% to 50% relative humidity)","appearance after freezer storage ([1]; mixture with Fungicide I, 0° F. freezer overnight)","appearance after refrigerator storage ([1]; mixture with Fungicide I, 42° F. refrigerator, 63 hours)","appearance of solution, container closed ([1]; 10% HGB/mineral spirits solution, container closed)","appearance of solution, container open to air ([1]; 10% HGB/mineral spirits solution, opened to air, over night)",maximum boron concentration of saturated aqueous solution [2]
"CC1CC(C)(C)OB(OC(C)CC(C)(C)OB2OC(C)CC(C)(C)O2)O1 (stereo not drawn) [THGB, tri hexylene glycol biborate]",dissolved all of the white solids,remains clear,no separation,produces stable mixtures,without any collapse,remained clear with no separation and no precipitation of solids,white solids were observed at the bottom of the container,remained clear without separation or precipitation,–,–,–
"CC1CC(C)(C)OB(OB2OC(C)CC(C)(C)O2)O1 (stereo not drawn) [HGB, hexylene glycol biborate]",–,remained clear during mixing,opaque white crystalline material immediately formed on the container surfaces,too reactive to form stable mixtures,–,–,–,–,remained clear without separation or solid precipitation,white crystal formation,–
OB(O)O [boric acid],–,–,–,–,–,–,–,–,–,–,no more than one
"CC1CCOB(OCCC(C)OB2OCCC(C)O2)O1 (stereo not drawn) [TBGB, tributylene glycol biborate]",–,immediately became hazy,brownish/red colored layer immediately began to form at the bottom of the container,too reactive to form stable mixtures,collapse slightly after a week,–,–,–,–,–,–
